System: lipase
Assay: Lipase activity retention in detergent use solution (4000 ppm, 5 GPG water; p-nitrophenyl valerate, TRIS buffer pH 8.0)
Type: biochemical
Details: for Relative Lipase Enzyme Activity in a Use Solution of the All Ash Detergent Composition: Table 6F, 120º F.; for Relative Lipase Enzyme Activity: base formula
Procedure, shortened: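 Lipase stability was measured in a detergent use solution under conditions mimicking presoak or manual warewash, with stirring in a water bath. Aliquots were taken over time and flash-frozen. Thawed samples were diluted in TRIS buffer at pH 8.0 and assayed with p-nitrophenyl valerate as substrate on a plate reader. Activity is reported as % retained relative to the time=0 sample.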

In the case of Diglycolamine phosphonate [DGAP], the “Relative Lipase Enzyme Activity in a Use Solution of the All Ash Detergent Composition” value (all ash formula, phosphonate 0.3 wt-%, time 0 min) is reported as 100.00%, the “Relative Lipase Enzyme Activity in a Use Solution of the All Ash Detergent Composition” value (all ash formula, phosphonate 0.3 wt-%, time 5 min) is reported as 87.31% and the “Relative Lipase Enzyme Activity in a Use Solution of the All Ash Detergent Composition” value (all ash formula, phosphonate 0.3 wt-%, time 10 min) is reported as 76.38%. For the same substance, the “Relative Lipase Enzyme Activity in a Use Solution of the All Ash Detergent Composition” value (all ash formula, phosphonate 0.3 wt-%, time 20 min) was 57.74%, the “Relative Lipase Enzyme Activity in a Use Solution of the All Ash Detergent Composition” value (all ash formula, phosphonate 0.3 wt-%, time 40 min) was 40.00% and the “Relative Lipase Enzyme Activity in a Use Solution of the All Ash Detergent Composition” value (all ash formula, phosphonate 0.3 wt-%, time 60 min) was 33.56%. For the same substance, the “Relative Lipase Enzyme Activity in a Use Solution of the All Ash Detergent Composition” value (all ash formula, phosphonate 0.3 wt-%, time 90 min) was 25.59%, the “Relative Lipase Enzyme Activity in a Use Solution of the All Ash Detergent Composition” value (all ash formula, phosphonate 0.3 wt-%, time 120 min) was 21.03% and the “Relative Lipase Enzyme Activity in a Use Solution of the All Ash Detergent Composition” value (all ash formula, phosphonate 0.3 wt-%, time 150 min) was 17.27%. For the same substance, the “Relative Lipase Enzyme Activity in a Use Solution of the All Ash Detergent Composition” value (all ash formula, phosphonate 0.3 wt-%, time 180 min) was 14.06%, the “Relative Lipase Enzyme Activity in a Use Solution of the All Ash Detergent Composition” value (all ash formula, phosphonate 0.3 wt-%, time 210 min) was 12.18% and the “Relative Lipase Enzyme Activity in a Use Solution of the All Ash Detergent Composition” value (all ash formula, phosphonate 0.3 wt-%, time 240 min) was 10.79%. For the same substance, the “lipase stability in all ash formula” value (all ash formula, versus same composition with PBTC or HEDP without amine(s), FIG. 6G) was “more stable”, the “Relative Lipase Enzyme Activity” value (phosphonate 0.3 wt-%, use solution at 120° F., time 0 min) was 100.00% and the “Relative Lipase Enzyme Activity” value (phosphonate 0.3 wt-%, use solution at 120° F., time 5 min) was 83.54%. For the same substance, the “Relative Lipase Enzyme Activity” value (phosphonate 0.3 wt-%, use solution at 120° F., time 10 min) was 88.25%, the “Relative Lipase Enzyme Activity” value (phosphonate 0.3 wt-%, use solution at 120° F., time 20 min) was 77.15% and the “Relative Lipase Enzyme Activity” value (phosphonate 0.3 wt-%, use solution at 120° F., time 40 min) was 62.99%. For the same substance, the “Relative Lipase Enzyme Activity” value (phosphonate 0.3 wt-%, use solution at 120° F., time 60 min) was 52.84%, the “Relative Lipase Enzyme Activity” value (phosphonate 0.3 wt-%, use solution at 120° F., time 90 min) was 43.46% and the “Relative Lipase Enzyme Activity” value (phosphonate 0.3 wt-%, use solution at 120° F., time 120 min) was 35.40%. For the same substance, the “Relative Lipase Enzyme Activity” value (phosphonate 0.3 wt-%, use solution at 120° F., time 150 min) was 31.10%, the “Relative Lipase Enzyme Activity” value (phosphonate 0.3 wt-%, use solution at 120° F., time 180 min) was 22.42% and the “Relative Lipase Enzyme Activity” value (phosphonate 0.3 wt-%, use solution at 120° F., time 210 min) was 24.78%. For the same substance, the “Relative Lipase Enzyme Activity” value (phosphonate 0.3 wt-%, use solution at 120° F., time 240 min) was 22.08%, the “Relative Lipase Enzyme Activity” value (phosphonate 0.6 wt-%, use solution at 120º F., time 0 min) was 100.00% and the “Relative Lipase Enzyme Activity” value (phosphonate 0.6 wt-%, use solution at 120º F., time 5 min) was 95.36%. The “Relative Lipase Enzyme Activity” value (phosphonate 0.6 wt-%, use solution at 120º F., time 10 min) was 100.58%, the “Relative Lipase Enzyme Activity” value (phosphonate 0.6 wt-%, use solution at 120º F., time 20 min) was 94.94% and the “Relative Lipase Enzyme Activity” value (phosphonate 0.6 wt-%, use solution at 120º F., time 40 min) was 93.85%. The “Relative Lipase Enzyme Activity” value (phosphonate 0.6 wt-%, use solution at 120º F., time 60 min) was 86.18%, the “Relative Lipase Enzyme Activity” value (phosphonate 0.6 wt-%, use solution at 120º F., time 90 min) was 76.99% and the “Relative Lipase Enzyme Activity” value (phosphonate 0.6 wt-%, use solution at 120º F., time 120 min) was 71.87%. For the same substance, the “Relative Lipase Enzyme Activity” value (phosphonate 0.6 wt-%, use solution at 120º F., time 150 min) was 72.77%, the “Relative Lipase Enzyme Activity” value (phosphonate 0.6 wt-%, use solution at 120º F., time 180 min) was 64.17% and the “Relative Lipase Enzyme Activity” value (phosphonate 0.6 wt-%, use solution at 120º F., time 210 min) was 63.68%. The “Relative Lipase Enzyme Activity” value (phosphonate 0.6 wt-%, use solution at 120º F., time 240 min) was 56.85%, the “Relative Lipase Enzyme Activity” value (phosphonate at 0.1% elemental phosphorus, at 120º F. or at room temperature (as titled), time 0 min) was 100.00% and the “Relative Lipase Enzyme Activity” value (phosphonate at 0.1% elemental phosphorus, at 120º F. or at room temperature (as titled), time 5 min) was 88.13%. The “Relative Lipase Enzyme Activity” value (phosphonate at 0.1% elemental phosphorus, at 120º F. or at room temperature (as titled), time 10 min) was 80.42%, the “Relative Lipase Enzyme Activity” value (phosphonate at 0.1% elemental phosphorus, at 120º F. or at room temperature (as titled), time 20 min) was 74.76% and the “Relative Lipase Enzyme Activity” value (phosphonate at 0.1% elemental phosphorus, at 120º F. or at room temperature (as titled), time 40 min) was 49.43%. For the same substance, the “Relative Lipase Enzyme Activity” value (phosphonate at 0.1% elemental phosphorus, at 120º F. or at room temperature (as titled), time 60 min) was 46.05%, the “Relative Lipase Enzyme Activity” value (phosphonate at 0.1% elemental phosphorus, at 120º F. or at room temperature (as titled), time 90 min) was 39.53% and the “Relative Lipase Enzyme Activity” value (phosphonate at 0.1% elemental phosphorus, at 120º F. or at room temperature (as titled), time 120 min) was 34.69%. The “Relative Lipase Enzyme Activity” value (phosphonate at 0.1% elemental phosphorus, at 120º F. or at room temperature (as titled), time 150 min) was 28.57%, the “Relative Lipase Enzyme Activity” value (phosphonate at 0.1% elemental phosphorus, at 120º F. or at room temperature (as titled), time 180 min) was 25.49% and the “Relative Lipase Enzyme Activity” value (phosphonate at 0.1% elemental phosphorus, at 120º F. or at room temperature (as titled), time 210 min) was 24.18%. For the same substance, the “Relative Lipase Enzyme Activity” value (phosphonate at 0.1% elemental phosphorus, at 120º F. or at room temperature (as titled), time 240 min) was 22.78%.
